# Reference: patent US10597388B2, “Pyridazinone herbicides” (FMC CORPORATION, priority 2014, dated 2020)
# Columns and labels:
# Test in all cases: Test D controlled growth environment herbicide test, pre- and postemergence
# Format in all cases: in vivo
# [1] = system: Russian thistle (Salsola kali)
# Procedure, shortened: (§1)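 Rating is visual, 0–100 scale (100 = complete control), made against untreated plants 14–21 d after treatment in controlled growth conditions. Postemergence sprays went onto 1- to 4-leaf plants in peat medium; preemergence sprays onto silt loam after sowing; formulation included a surfactant.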
# [2] = system: barley, spring (spring barley, Hordeum vulgare)
# Procedure, shortened: as §1
# [3] = system: bluegrass (annual bluegrass, Poa annua)
# Procedure, shortened: as §1
# [4] = system: deadnettle (henbit deadnettle, Lamium amplexicaule)
# Procedure, shortened: as §1
# [5] = system: field violet (Viola arvensis)
# Procedure, shortened: as §1
# [6] = system: foxtail, green (green foxtail, Setaria viridis)
# Procedure, shortened: as §1
# kochia (Kochia scoparia) = system: kochia (Kochia scoparia)
# Procedure, shortened: as §1
# [7] = system: mustard, wild (wild mustard, Sinapis arvensis)
# Procedure, shortened: as §1
# [8] = system: oat, wild (wild oat, Avena fatua)
# Procedure, shortened: as §1
# [9] = system: pigweed (Amaranthus retroflexus)
# Procedure, shortened: as §1
# [10] = system: wheat, spring (spring wheat, Triticum aestivum)
# Procedure, shortened: as §1
# [11] = system: wheat, winter (winter wheat, Triticum aestivum)
# Procedure, shortened: as §1
# [12] = system: windgrass (Apera spica-venti)
# Procedure, shortened: as §1
# [13] = Postemergence, 31 g ai/ha, scale 0 to 100 (0 no effect, 100 complete control)
# [14] = Postemergence, 125 g ai/ha, visual rating on scale 0 (no effect) to 100 (complete control), 14 to 21 d
# [15] = Postemergence, 250 g ai/ha, scale 0 to 100 (0 no effect, 100 complete control)
# [16] = Preemergence, 125 g ai/ha, scale 0 to 100 (0 no effect, 100 complete control)
# [17] = Preemergence, 250 g ai/ha, scale 0 to 100 (0 no effect, 100 complete control)
# [18] = postemergence, 62 g ai/ha, scale 0 to 100, 0 no effect, 100 complete control
# [19] = Preemergence, 62 g ai/ha, scale 0 to 100 (0 no effect, 100 complete control)
compound,measurement,setting,value
CCOC(=O)Oc1c(C)nn(C)c(=O)c1-c1c(C)sc2ccc(C)cc12 [Compound 82],Russian Thistle plant response rating,[1]; [13],65
same,"Plant response rating, Russian Thistle",[1]; [14],75
same,"Plant response rating, Russian Thistle",[1]; [15],85
same,"Plant response rating (scale of 0 to 100), Russian Thistle","[1]; Preemergence, 31 g ai/ha",10
same,"Plant response rating (scale of 0 to 100), Russian Thistle","[1]; Preemergence, 62 g ai/ha",15
same,"Plant response rating, Russian Thistle",[1]; [16],65
same,"Plant response rating, Russian Thistle",[1]; [17],65
same,"Plant response rating, Russian Thistle",[1]; [18],75
same,"Barley, Spring plant response rating",[2]; [13],0
same,"Plant response rating, Barley, Spring",[2]; [14],0
same,"Plant response rating, Barley, Spring",[2]; [15],5
same,"Plant response rating (scale of 0 to 100), Barley, Spring","[2]; Preemergence, 31 g ai/ha",0
same,"Plant response rating, Barley, Spring",[2]; [19],0
same,"Plant response rating, Barley, Spring",[2]; [16],0
same,"Plant response rating, Barley, Spring",[2]; [17],10
same,"Plant response rating, Barley, Spring",[2]; [18],5
same,Bluegrass plant response rating,[3]; [13],10
same,"Plant response rating, Bluegrass",[3]; [14],30
same,"Plant response rating, Bluegrass",[3]; [15],35
same,"Plant response rating (scale of 0 to 100), Bluegrass","[3]; Preemergence, 31 g ai/ha",15
same,"Plant response rating, Bluegrass",[3]; [19],45
same,"Plant response rating, Bluegrass",[3]; [16],65
same,"Plant response rating, Bluegrass",[3]; [17],80
same,"Plant response rating, Bluegrass",[3]; [18],20
same,Deadnettle plant response rating,[4]; [13],10
same,"Plant response rating, Deadnettle",[4]; [14],25
same,"Plant response rating, Deadnettle",[4]; [15],35
same,"Plant response rating (scale of 0 to 100), Deadnettle","[4]; Preemergence, 31 g ai/ha",10
same,"Plant response rating (scale of 0 to 100), Deadnettle","[4]; Preemergence, 62 g ai/ha",25
same,"Plant response rating, Deadnettle",[4]; [16],25
same,"Plant response rating, Deadnettle",[4]; [17],70
same,"Plant response rating, Deadnettle",[4]; [18],10
same,Field Violet plant response rating,[5]; [13],95
same,"Plant response rating, Field Violet",[5]; [14],100
same,"Plant response rating, Field Violet",[5]; [15],100
same,"Plant response rating (scale of 0 to 100), Field Violet","[5]; Preemergence, 31 g ai/ha",100
same,"Plant response rating (scale of 0 to 100), Field Violet","[5]; Preemergence, 62 g ai/ha",90
same,"Plant response rating, Field Violet",[5]; [16],95
same,"Plant response rating, Field Violet",[5]; [17],100
same,"Plant response rating, Field Violet",[5]; [18],100
same,"Foxtail, Green plant response rating",[6]; [13],75
same,"Plant response rating, Foxtail, Green",[6]; [14],85
same,"Plant response rating, Foxtail, Green",[6]; [15],90
same,"Plant response rating (scale of 0 to 100), Foxtail, Green","[6]; Preemergence, 31 g ai/ha",35
same,"Plant response rating (scale of 0 to 100), Foxtail, Green","[6]; Preemergence, 62 g ai/ha",75
same,"Plant response rating, Foxtail, Green",[6]; [16],90
same,"Plant response rating, Foxtail, Green",[6]; [17],85
same,"Plant response rating, Foxtail, Green",[6]; [18],80
same,Kochia plant response rating,kochia (Kochia scoparia); [13],90
same,"Plant response rating, Kochia",kochia (Kochia scoparia); [14],100
same,"Plant response rating, Kochia",kochia (Kochia scoparia); [15],100
same,"Plant response rating (scale of 0 to 100), Kochia","kochia (Kochia scoparia); Preemergence, 31 g ai/ha",0
same,"Plant response rating (scale of 0 to 100), Kochia","kochia (Kochia scoparia); Preemergence, 62 g ai/ha",15
same,"Plant response rating, Kochia",kochia (Kochia scoparia); [16],75
same,"Plant response rating, Kochia",kochia (Kochia scoparia); [17],100
same,"Plant response rating, Kochia",kochia (Kochia scoparia); [18],95
same,"Mustard, Wild plant response rating",[7]; [13],25
same,"Plant response rating, Mustard, Wild",[7]; [14],40
same,"Plant response rating, Mustard, Wild",[7]; [15],70
same,"Plant response rating (scale of 0 to 100), Mustard, Wild","[7]; Preemergence, 31 g ai/ha",0
same,"Plant response rating (scale of 0 to 100), Mustard, Wild","[7]; Preemergence, 62 g ai/ha",0
same,"Plant response rating, Mustard, Wild",[7]; [16],25
same,"Plant response rating, Mustard, Wild",[7]; [17],15
same,"Plant response rating, Mustard, Wild",[7]; [18],35
same,"Oat, Wild plant response rating",[8]; [13],90
same,"Plant response rating, Oat, Wild",[8]; [14],95
same,"Plant response rating, Oat, Wild",[8]; [15],95
same,"Plant response rating (scale of 0 to 100), Oat, Wild","[8]; Preemergence, 31 g ai/ha",80
same,"Plant response rating (scale of 0 to 100), Oat, Wild","[8]; Preemergence, 62 g ai/ha",85
same,"Plant response rating, Oat, Wild",[8]; [16],95
same,"Plant response rating, Oat, Wild",[8]; [17],95
same,"Plant response rating, Oat, Wild",[8]; [18],90
same,Pigweed plant response rating,[9]; [13],90
same,"Plant response rating, Pigweed",[9]; [14],100
same,"Plant response rating, Pigweed",[9]; [15],100
same,"Plant response rating (scale of 0 to 100), Pigweed","[9]; Preemergence, 31 g ai/ha",100
same,"Plant response rating (scale of 0 to 100), Pigweed","[9]; Preemergence, 62 g ai/ha",100
same,"Plant response rating, Pigweed",[9]; [16],100
same,"Plant response rating, Pigweed",[9]; [17],100
same,"Plant response rating, Pigweed",[9]; [18],100
same,"Wheat, Spring plant response rating",[10]; [13],0
same,"Plant response rating, Wheat, Spring",[10]; [14],0
same,"Plant response rating, Wheat, Spring",[10]; [15],5
same,"Plant response rating (scale of 0 to 100), Wheat, Spring","[10]; Preemergence, 31 g ai/ha",0
same,"Plant response rating (scale of 0 to 100), Wheat, Spring","[10]; Preemergence, 62 g ai/ha",0
same,"Plant response rating, Wheat, Spring",[10]; [16],15
same,"Plant response rating, Wheat, Spring",[10]; [17],40
same,"Plant response rating, Wheat, Spring",[10]; [18],0
same,"Wheat, Winter plant response rating",[11]; [13],0
same,"Plant response rating, Wheat, Winter",[11]; [14],0
same,"Plant response rating, Wheat, Winter",[11]; [15],0
same,"Plant response rating (scale of 0 to 100), Wheat, Winter","[11]; Preemergence, 31 g ai/ha",0
same,"Plant response rating (scale of 0 to 100), Wheat, Winter","[11]; Preemergence, 62 g ai/ha",0
same,"Plant response rating, Wheat, Winter",[11]; [16],0
same,"Plant response rating, Wheat, Winter",[11]; [17],10
same,"Plant response rating, Wheat, Winter",[11]; [18],0
same,Windgrass plant response rating,[12]; [13],70
same,"Plant response rating, Windgrass",[12]; [14],80
same,"Plant response rating, Windgrass",[12]; [15],85
same,"Plant response rating (scale of 0 to 100), Windgrass","[12]; Preemergence, 31 g ai/ha",75
same,"Plant response rating (scale of 0 to 100), Windgrass","[12]; Preemergence, 62 g ai/ha",80
same,"Plant response rating, Windgrass",[12]; [16],100
same,"Plant response rating, Windgrass",[12]; [17],100
same,"Plant response rating, Windgrass",[12]; [18],75
